# Measurements from patent US20240360185A1, “AV3 MUTANT INSECTICIDAL POLYPEPTIDES AND METHODS FOR PRODUCING AND USING SAME” (Vestaron Corporation, priority 2018, published 2024).
# Several values for one entry are separate records, joined by “and”; a condition that tells them apart may be missing. Equal values may be shown once. Entries after “also recorded” stand apart in the source; their conditions may differ. Ends that are not written are not given here.
# Legend:
# [1] = system: houseflies (Musca domestica); assay: housefly injection assay; format: in vivo; settings: for lowest dose to produce knock-down activity: within the first 4 hours post injection; for toxicity to houseflies by injection / activities in fly injection assay: in vivo; for effect on housefly mortality: dose of 10, 50, and 100 nmol/g for 24 hours; for recovery of the knock-down flies: 100 pmol/g dose; for lethal activity to houseflies: injection
# Description: An exemplary housefly injection bioassay is as follows: conditioned media is serially diluted to generate full dose-response curves from the housefly injection bioassay. Before injection, adult houseflies (Musca domestica) are immobilized with CO2, and 12-18 mg houseflies are selected for injection. A microapplicator, loaded with a 1 cc syringe and 30-gauge needle, is used to inject 0.5 μL per fly, doses of serially diluted conditioned media samples into houseflies through the body wall of the dorsal thorax. The injected houseflies are placed into closed containers with moist filter paper and breathing holes on the lids, and they are examined by knock-down ratio or by mortality scoring at 24 hours post-injection. Normalized yields are calculated. Peptide yield means the peptide concentration in the conditioned media in units of mg/L. However, peptide yields are not always sufficient to accurately compare the strain production rate. […] The cell density is represented by the light absorbance at 600 nm with a unit of “A” (Absorbance unit).
# A Housefly injection assay was performed to compare the activity of Av3b with GenScript Synthetic Av3b. FIG. 33. Adult houseflies were immobilized in CO2 for 10 minutes and then transferred to a CO2 pan to keep them immobilized. Flies with weight between 12-20 mg were picked for injection. The synthetic peptides were diluted in water to proper doses for injection. 0.5 μL peptide solution was injected into housefly at the dorsal thorax using a hand-microapplicator with 1 cc all-glass syringe with 30 gouge straight needle. The injected flies were then transferred to a 2 oz transparent portion container with a wet #4 filter paper. Fly score was accessed at 2 hour, 3 hour, 4 hour and 24 hour post-injection. […] Core-5 and Core-4 synthetic polypeptides were also evaluated in the housefly injection assay. FIG. 34. […] FIG. 36.
# [2] = system: Aedes aegypti; assay: adult mosquito topical bioassay; format: in vivo; settings: for Knock-down 50 at 3 hr, Average: Table 5; for Knock-down 50 at 3 hr: Table 5, single determinations; for paralysis and kill of adult mosquitos upon topical application: in vivo; for KD50 at 3-hours: post topical application; for synergy with permethrin: permethrin 500 ppb; for activity relative to native Av3: 3 hours post application
# Description: Native Av3, R1K mutant Av3 (Av3a) and R1K+AC-Val double mutant Av3 (Av3a-C1, or Av3b) were evaluated in the adult mosquito topical bioassay. The adult mosquitoes were ordered from Benzon Research. The adult mosquitoes were immobilized using CO2 gas and transferred onto a CO2 pad with CO2 flowing to keep them immobilized during topical applications. A hand microapplicator equipped with 1 cc glass syringe with a 30 gouge straight needle was used for the application of droplet. 0.25 μl droplet of toxin solution per mosquito was pushed out from the needle and gently applied to the ventral side of the mosquito abdomen. The treated mosquitoes were put into a 2.5 oz. clear cup with moisture filter paper and lid with breathing holes. Score the treated mosquitoes for paralysis or death within 24 hours post-application. […] FIG. 13.
# [3] = system: houseflies; assay: housefly feeding assay (oral toxicity); format: in vivo
# Description: The oral toxicity of Av3+2−C1 peptide was evaluated in the housefly feeding assay by mixing 20 PPT Av3+2−C1 with fly food (1:1 sugar: dry milk) and observed for 96 hours. Knock-down and dead flies were observed starting at 24-hour post-feeding and accumulated with time. FIG. 19. Unlike the housefly injection bioassay, recovery from paralysis in the feeding assay was not observed, likely due to the fact that the houseflies were continuously dosed in the later bioassay. FIG. 20.
# [4] = incubation of purified peptide in fermentation beer with untransformed K. lactis; format: physicochemical; settings: 8 days at room temperature
# Description: The pLB102-YCT-18 strain's apparent expression of two Av3+2 peptides, i.e., Av3+2 and Av3+2−C1, raised the question as to whether the C-Val cleavage observed in Peak 1 (SEQ ID NO: 19) occurred during peptide expression and secretion, or whether it occurred in the spent medium/fermentation beer as a result of endogenous proteases secreted from K. lactis. To answer this question, Av3+2 peptide was purified according to the abovementioned methods, and incubated with the fermentation beer in concert with untransformed K. lactis strain (i.e., a null strain) for 8 days at room temperature (RT). FIG. 4.
# [5] = system: crustacean and insect sodium channels; settings: cited from earlier work
# [6] = 1000 pmol/g dose, overnight observation
# [7] = Table 9, synthetic polypeptides
substance,measurement,setting,value
GSRSCCPCYWGGCPWGQNCYPEGCSGPK (ends and bridges not checked; cysteine pairing not given here) [Av3+2−C1],recovery of knock-down flies,[1]; [6],Recovery of the knock-down flies was observed
same,recovery of knock-down flies,[1]; 5000 and 20000 pmol/g doses,No recovery was observed
same,KD50 at 4-hours,[1]; housefly injection,651 pmol/g
same,lowest dose to produce knock-down activity,[1],500 pmol/g
same,"Knock-down 50 at 3 hr, Average",[2],747.9 ppm
same,Knock-down 50 at 3 hr,[2],952.7 ppm and 543.1 ppm
same,paralysis and kill of adult mosquitos upon topical application,[2],fast paralyze and eventually kill adult mosquitoes
same,KD50 at 3-hours,[2],543.12 ppm and 500-900 ppm and 952.69 ppm
same,recovery after maximum knock-down,[2]; topical application,recovery was observed thereafter
same,knock-down and dead flies first observed post-feeding,[3]; 20 PPT mixed with fly food,24 h
same,oral toxicity to houseflies,"[3]; 20 PPT mixed with fly food, observed for 96 hours",toxic to houseflies when consumed and/or upon oral contact
same,recovery from paralysis,"[3]; continuous feeding, 20 PPT",not observed
GSRSCCPCYWGGCPWGQNCYPEGCSGPKV (not fully specified; ends and bridges not checked) [Av3+2],recovery of knock-down flies,[1]; [6],Recovery of the knock-down flies was observed
same,recovery of knock-down flies,[1]; 5000 and 20000 pmol/g doses,No recovery was observed
same,paralysis effect in combination with fermentation beer from AaIT1 expression K. lactis strain,[1]; Av3+2 peptide at 500 pmol/g dose,synergistic instead of additive paralysis effect
same,KD50 at 4-hours,[1]; housefly injection,490 pmol/g
same,toxicity to houseflies by injection,[1],toxic to houseflies
same,lowest dose to produce knock-down activity,[1],100 pmol/g
same,"Knock-down 50 at 3 hr, Average",[2],281.5 ppm
same,Knock-down 50 at 3 hr,[2],230 ppm and 235.7 ppm and 347.7 ppm and 312.6 ppm
same,KD50 relative to that observed for native Av3,[2]; at 3-hours,roughly 5 fold
same,paralysis and kill of adult mosquitos upon topical application,[2],fast paralyze and eventually kill adult mosquitoes
same,synergy with permethrin,[2]; peptide 200 ppm,some synergy
same,KD50 at 3-hours,[2],235.71 ppm and 312.57 ppm and 200-300 ppm and 229.9 ppm
same,recovery after maximum knock-down,[2]; topical application,limited recovery thereafter; also recorded: recovery observed over time; also recorded: not much recovery effects observed thereafter
same,C-Val cleavage / stability,[4],did not result in any apparent C-Val cleavage
KACCPCYWAACPWAAACYAAACAAAK (Pharmacophore mutant) [Core 4],activities in fly injection assay,[1],dramatically reduced activities
KACCPCYWGGCPWGAACYPAGCAAAK (Pharmacophore mutant) [Core 5],KD50 at 3 hr,[1]; [7],1621 pmol/g
same,activity reduced,[1]; housefly injection,around 3 fold
KPYWPWYK (Pharmacophore mutant) [Core-3],effect on housefly mortality,[1],did not appear to have an effect on housefly mortality
KPYWPWYKV (Pharmacophore mutant) [Core-2],effect on housefly mortality,[1],did not appear to have an effect on housefly mortality
KSCCPCYWGGCPWGQNCYPEGCSGPK [Av3b],KD50 at 3 hr,"[1]; Table 8, AAA Calibrate stock at 32.5 mg/mL",172.22 pmol/g
same,KD50 at 3 hr,"[1]; Table 8, non-AAA stock at 50 mg/mL",265.21 pmol/g
same,activity relative to native Av3,[2]; listed as Av3a-C1,two-fold less active; also recorded: about twice as less active
same,"Knock-down 50 at 3 hr, Average",[2],81.63 ppm
same,Knock-down 50 at 3 hr,[2]; listed as Av3a-C1,86.9 ppm and 86.1 ppm and 71.9 ppm
same,KD50 at 3-hours,[2],71.9 ppm
KSCCPCYWGGCPWGQNCYPEGCSGPK [Synthetic Av3b],KD50 at 3 hr,"[1]; Table 8, synthetic peptide",633.02 pmol/g
same,KD50 at 3 hr,[1]; [7],540 pmol/g
same,activities in fly injection assay,[1],showed activities in fly injection assay
KSCCPCYWGGCPWGQNCYPEGCSGPKV [Av3a],activity relative to native Av3,[2],the same as native Av3
same,"Knock-down 50 at 3 hr, Average",[2],109.05 ppm
same,KD50 at 3-hours,[2],38.8 ppm
PYWPWY (Pharmacophore mutant) [Core-1],effect on housefly mortality,[1],did not appear to have an effect on housefly mortality
RSCCPCYWGGCPWGQNCYPEGCSGPK (ends and bridges not checked; cysteine pairing not given here) [Av3-C1],recovery of the knock-down flies,[1]; overnight observation,very rare
same,KD50 at 4-hours,[1]; housefly injection,521 pmol/g
same,lethal activity to houseflies,[1],no potent lethal activity
"RSCCPCYWGGCPWGQNCYPEGCSGPKV [Av3, reference compound]",recovery of the knock-down flies,[1]; overnight observation,very rare
same,KD50 at 4-hours,[1]; housefly injection,606 pmol/g
same,toxicity to houseflies by injection,[1],toxic to houseflies
same,lethal activity to houseflies,[1],no potent lethal activity
same,"Knock-down 50 at 3 hr, Average",[2],45.98 ppm
same,synergy with permethrin,[2],some synergy
same,KD50 at 3-hours,[2]; listed as Native Av3,58 ppm and 42.6 ppm
same,recovery after maximum knock-down,[2]; topical application,no obvious recovery observed thereafter
same,time at which knock-down effect reached its maximum,[2]; topical application,1 h
same,selectivity for crustacean and insect sodium channels,[5],high selectivity
